From patent US11498899B2, “Nitrone herbicides” (FMC Corporation, priority 2016, dated 2022)

Legend:
[1] = tested on: barnyardgrass (Echinochloa crus-galli); test: Test A preemergence, visual injury rating 0-100 (0 no effect, 100 complete control); type: in vivo; conditions: for Barnyardgrass plant response rating (0 to 100 scale): 125 g ai/ha; for Barnyardgrass plant response rating: 500 g ai/ha, 0 to 100 scale
[2] = tested on: barnyardgrass (Echinochloa crus-galli); test: Test B flooded paddy test, visual rating 0-100; conditions: Flood, 250 g ai/ha, applied to paddy water, rated after 13 to 15 days
rice (Oryza sativa) = test: Test B flooded paddy test, visual rating 0-100 (0 no effect, 100 complete control); conditions: Flood, 250 g ai/ha, applied to paddy water, rated after 13 to 15 days
[3] = tested on: blackgrass (Alopecurus myosuroides); test: Test A postemergence, visual injury rating 0-100; type: in vivo; conditions: 0 to 100 scale
kochia (Kochia scoparia) [4] = test: Test A postemergence, visual injury rating 0-100; type: in vivo; conditions: 0 to 100 scale
corn (Zea mays) = test: Test A postemergence, visual injury rating 0-100; type: in vivo; conditions: 0 to 100 scale
[5] = tested on: wheat (Triticum aestivum); test: Test A postemergence, visual injury rating 0-100; type: in vivo; conditions: 0 to 100 scale
[6] = tested on: ryegrass, Italian (Italian ryegrass, Lolium multiflorum); test: Test A postemergence, visual injury rating 0-100; type: in vivo; conditions: 0 to 100 scale
[7] = tested on: foxtail, green (green foxtail, Setaria viridis); test: Test A postemergence, visual injury rating 0-100; type: in vivo; conditions: 0 to 100 scale
[8] = tested on: ragweed (common ragweed, Ambrosia elatior); test: Test A postemergence, visual injury rating 0-100; type: in vivo; conditions: 0 to 100 scale
[9] = tested on: barnyardgrass (Echinochloa crus-galli); test: Test A postemergence, visual injury rating 0-100; type: in vivo; conditions: 0 to 100 scale
[10] = tested on: pigweed (Amaranthus retroflexus); test: Test A postemergence, visual injury rating 0-100; type: in vivo; conditions: 0 to 100 scale
kochia (Kochia scoparia) [11] = test: Test A preemergence, visual injury rating 0-100; type: in vivo
[12] = tested on: ryegrass, Italian (Italian ryegrass, Lolium multiflorum); test: Test A preemergence, visual injury rating 0-100; type: in vivo
[13] = tested on: foxtail, green (green foxtail, Setaria viridis); test: Test A preemergence, visual injury rating 0-100; type: in vivo
[14] = tested on: ragweed (common ragweed, Ambrosia elatior); test: Test A preemergence, visual injury rating 0-100; type: in vivo
[15] = tested on: pigweed (Amaranthus retroflexus); test: Test A preemergence, visual injury rating 0-100; type: in vivo
[16] = tested on: ducksalad (Heteranthera limosa); test: Test B flooded paddy test, visual rating 0-100; conditions: Flood, 250 g ai/ha, applied to paddy water, rated after 13 to 15 days

SMILES	Barnyardgrass plant response rating (0 to 100 scale) [1]	Barnyardgrass plant response rating [1]	Barnyardgrass plant response rating (0 to 100 scale) [2]	Rice plant response rating (0 to 100 scale) (rice (Oryza sativa))	Blackgrass plant response rating ([3]; 125 g ai/ha)	Blackgrass plant response rating ([3]; 500 g ai/ha)	Kochia plant response rating (kochia (Kochia scoparia) [4]; 125 g ai/ha)	Kochia plant response rating (kochia (Kochia scoparia) [4]; 500 g ai/ha)	Corn plant response rating (corn (Zea mays); 125 g ai/ha)	Corn plant response rating (corn (Zea mays); 500 g ai/ha)	Wheat plant response rating ([5]; 125 g ai/ha)	Wheat plant response rating ([5]; 500 g ai/ha)	Ryegrass, Italian plant response rating ([6]; 125 g ai/ha)	Ryegrass, Italian plant response rating ([6]; 500 g ai/ha)	Foxtail, Green plant response rating ([7]; 125 g ai/ha)	Foxtail, Green plant response rating ([7]; 500 g ai/ha)	Ragweed plant response rating ([8]; 125 g ai/ha)	Ragweed plant response rating ([8]; 500 g ai/ha)	Barnyardgrass plant response rating ([9]; 125 g ai/ha)	Barnyardgrass plant response rating ([9]; 500 g ai/ha)	other results
CC1=[N+]([O-])C(C(=O)Nc2cccc(F)c2C#N)C(c2ccc(C(F)(F)F)cc2)C1 (racemic) [Compound 34]	80	100	35	0	40	80	0	30	0	0	0	50	0	30	0	80	0	50	30	70	Pigweed plant response rating ([10]; 125 g ai/ha): 30; Pigweed plant response rating ([10]; 500 g ai/ha): 70; Kochia plant response rating (0 to 100 scale) (kochia (Kochia scoparia) [11]; 125 g ai/ha): 0; Kochia plant response rating (0 to 100 scale) (kochia (Kochia scoparia) [11]; 500 g ai/ha): 90; Ryegrass, Italian plant response rating (0 to 100 scale) ([12]; 125 g ai/ha): 0; Ryegrass, Italian plant response rating (0 to 100 scale) ([12]; 500 g ai/ha): 0; Foxtail, Green plant response rating (0 to 100 scale) ([13]; 125 g ai/ha): 40; Foxtail, Green plant response rating (0 to 100 scale) ([13]; 500 g ai/ha): 100; Ragweed plant response rating (0 to 100 scale) ([14]; 125 g ai/ha): 50; Ragweed plant response rating (0 to 100 scale) ([14]; 500 g ai/ha): 100; Pigweed plant response rating (0 to 100 scale) ([15]; 125 g ai/ha): 0; Pigweed plant response rating (0 to 100 scale) ([15]; 500 g ai/ha): 90; Ducksalad plant response rating (0 to 100 scale) [16]: 50
CC1=[N+]([O-])C(C(=O)Nc2cccc(F)c2Cl)C(c2ccc(C(F)(F)F)cc2)C1 (racemic) [Compound 31]	50	100	0	0	20	80	0	10	0	10	0	40	20	20	40	90	0	20	30	90	Pigweed plant response rating ([10]; 125 g ai/ha): 0; Pigweed plant response rating ([10]; 500 g ai/ha): 30; Kochia plant response rating (0 to 100 scale) (kochia (Kochia scoparia) [11]; 125 g ai/ha): 0; Kochia plant response rating (0 to 100 scale) (kochia (Kochia scoparia) [11]; 500 g ai/ha): 80; Ryegrass, Italian plant response rating (0 to 100 scale) ([12]; 125 g ai/ha): 0; Ryegrass, Italian plant response rating (0 to 100 scale) ([12]; 500 g ai/ha): 20; Foxtail, Green plant response rating (0 to 100 scale) ([13]; 125 g ai/ha): 90; Foxtail, Green plant response rating (0 to 100 scale) ([13]; 500 g ai/ha): 100; Ragweed plant response rating (0 to 100 scale) ([14]; 125 g ai/ha): 0; Ragweed plant response rating (0 to 100 scale) ([14]; 500 g ai/ha): 90; Pigweed plant response rating (0 to 100 scale) ([15]; 125 g ai/ha): 0; Pigweed plant response rating (0 to 100 scale) ([15]; 500 g ai/ha): 60; Ducksalad plant response rating (0 to 100 scale) [16]: 0
CC1=[N+]([O-])C(C(=O)Nc2ccccc2S(C)(=O)=O)C(c2ccc(C(F)(F)F)cc2)C1 (racemic) [Compound 43]	20	100	0	0	0	30	0	0	0	0	0	0	0	20	20	60	0	0	20	60	Pigweed plant response rating ([10]; 125 g ai/ha): 0; Pigweed plant response rating ([10]; 500 g ai/ha): 0; Kochia plant response rating (0 to 100 scale) (kochia (Kochia scoparia) [11]; 125 g ai/ha): 0; Kochia plant response rating (0 to 100 scale) (kochia (Kochia scoparia) [11]; 500 g ai/ha): 80; Ryegrass, Italian plant response rating (0 to 100 scale) ([12]; 125 g ai/ha): 0; Ryegrass, Italian plant response rating (0 to 100 scale) ([12]; 500 g ai/ha): 0; Foxtail, Green plant response rating (0 to 100 scale) ([13]; 125 g ai/ha): 80; Foxtail, Green plant response rating (0 to 100 scale) ([13]; 500 g ai/ha): 100; Ragweed plant response rating (0 to 100 scale) ([14]; 125 g ai/ha): 0; Ragweed plant response rating (0 to 100 scale) ([14]; 500 g ai/ha): 100; Pigweed plant response rating (0 to 100 scale) ([15]; 125 g ai/ha): 40; Pigweed plant response rating (0 to 100 scale) ([15]; 500 g ai/ha): 90; Ducksalad plant response rating (0 to 100 scale) [16]: 0
CC1=[N+]([O-])[C@H](C(=O)Nc2cccc(F)c2F)[C@@H](c2ccc3c(c2)OC(F)(F)O3)C1 (relative stereo) [Compound 25, rel-(2S,3R)-3-(2,2-Difluoro-1,3-benzodioxol-5-yl)-N-(2,3-difluorophenyl)-3,4-dihydro-5-methyl-2H-pyrrole-2-carboxamide 1-oxide]	90	90	75	0	20	40	60	60	60	80	70	90	40	50	40	90	40	50	70	90	Pigweed plant response rating ([10]; 125 g ai/ha): 60; Pigweed plant response rating ([10]; 500 g ai/ha): 70; Kochia plant response rating (0 to 100 scale) (kochia (Kochia scoparia) [11]; 125 g ai/ha): 50; Kochia plant response rating (kochia (Kochia scoparia) [11]; 500 g ai/ha, 0 to 100 scale): 80; Ryegrass, Italian plant response rating (0 to 100 scale) ([12]; 125 g ai/ha): 80; Ryegrass, Italian plant response rating ([12]; 500 g ai/ha, 0 to 100 scale): 50; Foxtail, Green plant response rating (0 to 100 scale) ([13]; 125 g ai/ha): 90; Foxtail, Green plant response rating ([13]; 500 g ai/ha, 0 to 100 scale): 90; Ragweed plant response rating (0 to 100 scale) ([14]; 125 g ai/ha): 50; Ragweed plant response rating ([14]; 500 g ai/ha, 0 to 100 scale): 100; Pigweed plant response rating (0 to 100 scale) ([15]; 125 g ai/ha): 80; Pigweed plant response rating ([15]; 500 g ai/ha, 0 to 100 scale): 90; Ducksalad plant response rating (0 to 100 scale) [16]: 90
